# Laboratory results from patent publication US20260234165A1, “MACROCYCLIC COMPOUNDS, PREPARATION METHOD THEREFOR, AND USE THEREOF” (GENFLEET THERAPEUTICS (SHANGHAI) INC., priority 2004, published 2026).
# Where a name gives a salt, the structure may show the parent alone. Read-outs that look alike come from different tables or passages of the source.
# Assays:
# Format in all cases: cell-based, human
# [1] = system: p-ERK in AsPC-1 cells (KRAS G12D mutation); assay: Cell p-ERK assay (HTRF) in AsPC-1 cells
# How it was run: (§1)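 AsPC-1 (10000/well) or NCI-H441 (20000/well) cells were seeded in RPMI-1640 with 10% FBS, grown overnight, then exposed to 3.16-fold compound dilutions (0.1% DMSO) for 3 h at 37 °C. Lysates were read for phospho-ERK T202/Y204 by HTRF; IC50 came from four-parameter fits of inhibition versus DMSO and blank wells.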
# NCI-H441 cells = assay: 3D cell proliferation assay (CellTiter Glo-3D), NCI-H441; settings: medium with 2% FBS, read-out: H441 AP IC50
# How it was run: (§2)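 Cells were seeded at 800 per well in RPMI-1640 containing 2% FBS and left overnight. Compounds in 3.16-fold dilution series were then added at 0.1% DMSO and incubated 5 days at 37 °C. Viability was read by CellTiter-Glo 3D luminescence and IC50 values fitted by four-parameter regression.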
# [2] = system: p-ERK in NCI-H441 cells (KRAS G12V mutation); assay: Cell p-ERK assay (HTRF) in NCI-H441 cells
# How it was run: as §1
# [3] = system: AsPC-1 cells (KRAS G12D mutation); assay: 3D cell proliferation assay (CellTiter Glo-3D), AsPC-1; settings: medium with 2% FBS, read-out: AsPC-1 AP IC50
# How it was run: as §2
# [4] = Homo sapiens, ASPC1, 3 h, AsPC-1 cells, 3 h compound incubation, HTRF p-ERK T202/Y204, read-out: AsPC-1 p-ERK IC50
# [5] = 3D cell proliferation (CellTiter Glo-3D)
# [6] = Homo sapiens, NCI-H441, 3 h, NCI-H441 cells, 3 h compound incubation, HTRF p-ERK T202/Y204, read-out: H441 p-ERK IC50
# [7] = AsPC-1 cells, 3 h compound incubation, HTRF p-ERK T202/Y204, read-out: AsPC-1 p-ERK IC50
# [8] = NCI-H441 cells, 3 h compound incubation, HTRF p-ERK T202/Y204, read-out: H441 p-ERK IC50
# [9] = Homo sapiens, NCI-H441, 3D cell proliferation (CellTiter Glo-3D)
# [10] = Homo sapiens, ASPC1, 3D cell proliferation (CellTiter Glo-3D)
"IC50 [1, 4] [nM]",IC50 (NCI-H441 cells; [5]) [nM],"IC50 [2, 6] [nM]","IC50 [3, 5] [nM]","IC50 [1, 7] [nM]","IC50 [2, 8] [nM]",IC50 (NCI-H441 cells; [9]) [nM],"IC50 [3, 10] [nM]",Molecule,"IC50 ([1]; Homo sapiens, ASPC1, 3 h, read-out: AsPC-1 p-ERK IC50(nM)) [nM]","IC50 (NCI-H441 cells; Homo sapiens, 3D cell proliferation (CellTiter Glo-3D)) [nM]","IC50 ([2]; Homo sapiens, NCI-H441, 3 h, read-out: H441 p-ERK IC50(nM)) [nM]"
0.25,0.26,0.46,0.58,–,–,–,–,"CCn1c(-c2cc(C#CCN3CCCOCC3)c[n+]([O-])c2[C@H](C)OC)c2c3cc(ccc31)-c1csc(n1)C[C@H](NC(=O)[C@H]1[C@H](C)[C@@H]1C)C(=O)N1CCC[C@H](N1)C(=O)OCC(C)(C)C2 [Compound Z914, 5-(3-(1,4-oxazepan-4-yl)prop-1-yn-1-yl)-3-((6^3S,4S,Z)-4-((r,2R,3S)-2,3-dimethylcyclopropane-1-carboxamido)-1^1-ethyl-10,10-dimethyl-5,7-dioxo-6^1,6^2,6^3,6^4,6^5,6^6-hexahydro-1^1H-8-oxa-2(4,2)-thiazola-1(5,3)-indola-6(1.3)-pyridazinacycloundecaphane-1^2-yl)-2-((S)-1-methoxyethyl)pyridine-1-oxide]",–,–,–
–,0.28,–,0.2,0.33,0.29,–,–,"C=C1CN(CC#Cc2cnc([C@H](C)OC)c(-c3c4c5cc(ccc5n3CC)-c3csc(n3)C[C@H](NC(=O)[C@H]3[C@H](C)[C@@H]3C)C(=O)N3CCC[C@H](N3)C(=O)OCC(C)(C)C4)c2)C1 [Compound Z1034, (1 r,2R,3S)—N-((6^3S,4S,Z)-1^1-ethyl-1^2-(2-((S)-1-methoxyethyl)-5-(3-(3-methyleneazetidine-1-yl)prop-1-Sn-1-yl)pyridin-3-yl)-10,10-dimethyl-5,7-dioxo-6^1,6^2,6^3,6^4,6^5,6^6-hexahydro-1^1H-8-oxa-2(4.2)-thiazola-1(5,3)-indola-6(1.3)-pyridazinacycloundecaphane-4-yl)-2,3-dimethylcyclopropane-1-carboxamide]",–,–,–
0.36,–,0.19,–,–,–,0.17,0.21,CCn1c(-c2cc(C#CCN3CCC(N=S(C)(C)=O)CC3)cnc2[C@H](C)OC)c2c3cc(ccc31)-c1csc(n1)C[C@H](NC(=O)[C@H]1[C@H](C)[C@@H]1C)C(=O)N1CCC[C@H](N1)C(=O)OCC(C)(C)C2 [Compound Z1045],–,–,–
0.71,–,0.34,–,–,–,0.34,0.63,"CCn1c(-c2cc(C#CCN3CC(N=S(C)(C)=O)C3)cnc2[C@H](C)OC)c2c3cc(ccc31)-c1csc(n1)C[C@H](NC(=O)[C@H]1[C@H](C)[C@@H]1C)C(=O)N1CCC[C@H](N1)C(=O)OCC(C)(C)C2 [Compound Z1046, (2R,3S)—N-((6^3S,4S,Z)-1^2-(5-(3-(3-((dimethyl(oxo)-λ^6-sulfaneylidene)amino)azetidin-1-yl)prop-1-yn-1-yl)-2-((S)-1-methoxyethyl)pyridin-3-yl)-1^1-ethyl-10,10-dimethyl-5,7-dioxo-6^1,6^2,6^3,6^4,6^5,6^6-hexahydro-1^1H-8-oxa-2(4,2)-thiazola-1(5,3)-indola-6(1,3)-pyridazinacycloundecaphane-4-yl)-2,3-dimethylcyclopropane-1-carboxamide]",–,–,–
–,0.4,–,0.43,0.42,0.31,–,–,"CCn1c(-c2cc(C#CCN3CC(O)C3)cnc2[C@H](C)OC)c2c3cc(ccc31)-c1csc(n1)C[C@H](NC(=O)[C@H]1[C@H](C)[C@@H]1C)C(=O)N1CCC[C@H](N1)C(=O)OCC(C)(C)C2 [Compound Z1065, (2R,3S)—N-((6^3S,4S,Z)-1^1-ethyl-1^2-(5-(3-(3-hydroxyazetidin-1-yl)prop-1-yn-1-yl)-((S)-1-methoxyethyl)pyridin-3-yl)-10,10-dimethyl-5,7-dioxo-6^1,6^2,6^3,6^4,6^5,6^6-hexahydro-1^1H-8-oxo-2(4,2)-thiazola-1(5,3)-indola-6(1,3)-pyridazinacycloundecaphane-4-yl)-2,3-dimethylcyclopropane-1-carboxamide formate]",–,–,–
–,42.6,–,97.2,93,37.7,–,–,"(1S,2R,3S)—N-((6^3S,4S,Z)—(Ra)-1^2-(5-(2-(4-oxa-7-azaspiro[2,5]octan-7-yl)ethoxy)-2-((S)-1-methoxyethyl)pyridin-3-yl)-11-ethyl-10,10-dimethyl-5,7-dioxo-6^1,6^2,6^3,6^4,6^5,6^6-hexahydro-1^1H-8-oxa-2(4,2)-thiazola-1(5,3)-indola-6(1,3)- pyridazinacycloundecaphane-4-yl)-2-methyl-3-(pyrimidin-4-yl)cyclopropane-1-carboxamide [Compound Z661-1]",–,–,–

Molecule,"IC50 [1, 4] [nM]",IC50 (NCI-H441 cells; [5]) [nM],"IC50 [2, 6] [nM]","IC50 [3, 5] [nM]","IC50 [1, 7] [nM]","IC50 [2, 8] [nM]",IC50 (NCI-H441 cells; [9]) [nM],"IC50 [3, 10] [nM]","IC50 ([1]; Homo sapiens, ASPC1, 3 h, read-out: AsPC-1 p-ERK IC50(nM)) [nM]","IC50 (NCI-H441 cells; Homo sapiens, 3D cell proliferation (CellTiter Glo-3D)) [nM]","IC50 ([2]; Homo sapiens, NCI-H441, 3 h, read-out: H441 p-ERK IC50(nM)) [nM]"
"CCn1c(-c2cc(C#CCN3CCC(C#N)(c4cccc[n+]4[O-])CC3)cnc2[C@H](C)OC)c2c3cc(ccc31)-c1csc(n1)C[C@H](NC(=O)[C@H]1[C@H](C)[C@@H]1C)C(=O)N1CCC[C@H](N1)C(=O)OCC(C)(C)C2 [Compound Z1054, 2-(4-cyano-1-(3-(5-((6^3S,4S,Z)-4-((2R,3S)-2 3-dimethylcyclopropane-1-carboxamido)-1^1-ethyl-10,10-dimethyl-5,7-dioxo-6^1,6^2,6^3,6^4,6^5,6^6-hexahydro-1^1H-8-oxa-2(4.2)-thiazola-1(5,3)-indola-6(1,3)-pyridazinacycloundecaphane-12-yl)-6-((S)-1-methoxyethyl)pyridin-3-yl)prop-2-yn-1-yl)piperidin-4-yl)pyridine 1-oxide formate]",–,–,–,–,–,–,–,0.08,0.16,0.15,0.25
